From patent US20240027435A1, “METHOD AND KIT FOR LABELING EUKARYOTIC CELLS FROM A MULTICELLULAR ORGANISM USING MODIFIED MONOSACCHARIDE COMPOUNDS AND PHARMACEUTICAL COMPOSITION COMPRISING SUCH CELLS” (THERAONCO, priority 2020, published 2024)

Legend:
Format in all cases: cell-based, Human
THP1 = test: Labelling of cells with azido-monosaccharide probe, fluorescence cancer/non cancer ratio: THP1 vs Monocytes/Macrophages; settings: fluorescence signal ratio; THP1 (Blood, monocytic acute leukemia) vs Monocytes/Macrophages; incubation one doubling time (26 h)
Experimental: (§1) The cell lines were grown in suitable medium, supplemented by 10% fetal bovine serum (FBS) (VWR international S.A.S). The culture medium was changed every two days. The passaging of cells was performed using Tryp-LE express 1× (Gibco). The cell viability was estimated using trypan blue exclusion tests.
(§2) Cells were seeded in 24-well plates, at a density of 5×10^4 cells/well. Then, cells were incubated at 37° C., 5% CO2, during 24 hours. The culture media were adapted to the tested cells and supplemented by 10% fetal bovine serum (FBS). The incubation time corresponded to one doubling time of the tested cells. The fluorescence signal cancer/non cancer ratios were calculated based on fluorescence intensities obtained with Xylose-N3 or Ribose-N3 tested on cancer and corresponding non cancer cells.
(§3) The fluorescence assimilation of Xylose-N3 or Ribose-N3 probes was visualized by copper-free click chemistry using sulfo-DBCO-biotin (1 mM), followed by labeling with a mouse anti-biotin Alexa Fluor 488 antibody conjugate (0.62 mg/ml stock, Jackson ImmunoResearch, dilution 1/10). […]
(§4) The fluorescence acquisition was recorded using Olympus Microscopy IX83 (Olympus Life Science) equipped with a 60×/1.3 […]/1.4 SRI (silicone refractive index) objective, and Hamamatsu oreca flash 4 LT camera with 109 nm/pixel calibrated pixel size. […]

KCL22 = test: Labelling of cells, fluorescence cancer/non cancer ratio: KCL22 vs Lymphocytes; settings: fluorescence signal ratio; KCL22 (Blood, chronic myelogenous leukemia) vs Lymphocytes; one doubling time (24 h)
Experimental: as §1, §2, §3, §4

A431 = test: Labelling of cells, fluorescence cancer/non cancer ratio: A431 vs Hacat; settings: fluorescence signal ratio; A431 (Skin, Epidermoid carcinoma) vs Hacat; one doubling time (30 h)
Experimental: as §1, §2, §3, §4

PANC = test: Labelling of cells, fluorescence cancer/non cancer ratio: PANC vs HPNE; settings: fluorescence signal ratio; PANC (Pancreas, Pancreatic carcinoma) vs HPNE; one doubling time (32 h)
Experimental: as §1, §2, §3, §4

Kasumi-1 = test: Labelling of cells, fluorescence cancer/non cancer ratio: Kasumi-1 vs B12-F8; settings: fluorescence signal ratio; Kasumi-1 (Blood, Acute Myeloid Leukemia, 48 h) vs B12-F8 (24 h); one doubling time
Experimental: as §1, §2, §3, §4

K562 = test: Labelling of cells, fluorescence cancer/non cancer ratio: K562 vs Lymphocytes T; settings: fluorescence signal ratio; K562 (Blood, Chronic Myeloid Leukemia) vs Lymphocytes T; one doubling time (24 h)
Experimental: as §1, §2, §3, §4

HT29 = test: Labelling of cells, fluorescence cancer/non cancer ratio: HT29 vs Colon epithelial cell; settings: fluorescence signal ratio; HT29 (colon, Colorectal adenocarcinoma) vs Colon epithelial cell; one doubling time (40 h)
Experimental: as §1, §2, §3, §4

AGS = test: Labelling of cells, fluorescence cancer/non cancer ratio: AGS vs Stomach epitelial cell; settings: fluorescence signal ratio; AGS (Stomach, Gastric adenocarcinoma) vs Stomach epitelial cell; one doubling time (30 h)
Experimental: as §1, §2, §3, §4

MDA-MB-231 = test: Labelling of cells, fluorescence cancer/non cancer ratio: MDA-MB-231 vs Breast epithelial cell; settings: fluorescence signal ratio; MDA-MB-231 (Breast adenocarcinoma) vs Breast epithelial cell; one doubling time (40 h)
Experimental: as §1, §2, §3, §4

A549 = test: Labelling of cells, fluorescence cancer/non cancer ratio: A549 vs Bronchial epithelial cell; settings: fluorescence signal ratio; A549 (Lung, Carcinoma) vs Bronchial epithelial cell; one doubling time (40 h)
Experimental: as §1, §2, §3, §4

BL-2 = test: Labelling of cells, fluorescence cancer/non cancer ratio: BL-2 vs Isolated primary B cells; settings: fluorescence signal ratio; BL-2 (Blood, non-endemic Burkitt lymphoma, 24 h) vs Isolated primary B cells
Experimental: as §1, §2, §3, §4

DOHH-2 = test: Labelling of cells, fluorescence cancer/non cancer ratio: DOHH-2 vs Isolated primary B cells; settings: fluorescence signal ratio; DOHH-2 (Blood, Diffuse large B-cell lymphoma germinal center B-cell type, 40-48 h) vs Isolated primary B cells
Experimental: as §1, §2, §3, §4

OCI-Ly3 = test: Labelling of cells, fluorescence cancer/non cancer ratio: OCI-Ly3 vs Isolated primary B cells; settings: fluorescence signal ratio; OCI-Ly3 (Blood, Diffuse large B-cell lymphoma, 24 h) vs Isolated primary B cells
Experimental: as §1, §2, §3, §4

MDA MB175 = test: Labelling of cells, fluorescence cancer/non cancer ratio: MDA MB175 vs HME-1; settings: fluorescence signal ratio; MDA MB175 (Breast cancer) vs HME-1; one doubling time (30 h)
Experimental: as §1, §2, §3, §4

With `[N-]=[N+]=NC[C@@H](O)[C@H](O)[C@@H](O)C=O` [Xylose-N3, 5-azido-5-deoxy-xylose] the “Cancer/Non Cancer Ratio” value (THP1) was 25, the “Cancer/Non Cancer Ratio” value (KCL22) was 7 and the “Cancer/Non Cancer Ratio” value (A431) was 12. The “Cancer/Non Cancer Ratio” value (PANC) was 3, the “Cancer/Non Cancer Ratio” value (Kasumi-1) was 2 and the “Cancer/Non Cancer Ratio” value (K562) was 5. For the same compound, the “Cancer/Non Cancer Ratio” value (HT29) was 8, the “Cancer/Non Cancer Ratio” value (AGS) was 2 and the “Cancer/Non Cancer Ratio” value (MDA-MB-231) was 4. The “Cancer/Non Cancer Ratio” value (A549) was 10, the “Cancer/Non Cancer Ratio” value (BL-2) was 2 and the “Cancer/Non Cancer Ratio” value (DOHH-2) was 12. For the same compound, the “Cancer/Non Cancer Ratio” value (OCI-Ly3) was 9 and the “Cancer/Non Cancer Ratio” value (MDA MB175) was 3.
